In US12459910B2, “Mitochondrial therapeutic agents” (ARIZONA BOARD OF REGENTS ON BEHALF OF ARIZONA STATE …, priority 2021, dated 2025):

What was measured:
FRDA fibroblasts = assay: Erastin cell survival assay (cellular ATP, ViaLight Plus); assay type: cell-based; settings: FRDA fibroblasts (GM04078); compounds 12 h before 4 μM erastin; viability by ATP 48 h after erastin; read-out: Erastin challenge cell survival EC50
Description: (§1) All compounds evaluated for their biological effects were >95% pure. Chemicals employed for the bioassays, including ferrostatin-1 (Fer-1), liproxstatin-1 (Lip-1), RSL3 ((1S,3R)-RSL3), erastin, α-tocopherol, carbonyl cyanide 4-(trifluoromethoxy) phenylhydrazone (FCCP) and galactose, were purchased from Sigma Aldrich. Fluorescent probes, including C11-BODIPY581/591(4,4-difluoro-5-(4-phenyl-1,3-butadienyl)-4-bora-3a,4a-diaza-s-indacene-3-propionic acid), and The Live/Dead® Viability/Cytotoxicity Kit were obtained from Invitrogen (Thermo Fisher Scientific). Luciferase-linked ATPase enzymatic assay (ViaLight Plus proliferation/cytoxicity kit was purchased from Lonza (Walkersville, MD). FRDA lymphocytes (catalogue number GM15850) and FRDA fibroblasts cells (catalogue number GM04078) were obtained from Coriell Cell Repositories (Camden, NJ, USA).
(§2) Lymphocytes were cultured in RPMI-1640 medium (Gibco, Life Technologies, Grand Island, NY) with 15% fetal calf serum, 2 mM glutamine (HyClone, South Logan, UT) and 1% penicillin-streptomycin antibiotic supplement (Cellgro, Manassas, VA). Cells were passaged daily to maintain them in log phase growth and kept at a nominal concentration of 5-10×105 mL. FRDA fibroblasts were cultured in 64% (v/v) Eagle's minimal essential medium (MEM), lacking phenol red with Eagle's balanced salt (EBS) and 25% M199 with EBS (Gibco) supplemented with 10% (v/v) fetal bovine serum albumin (HyClone), 1% penicillin-streptomycin antibiotic mix, 10 μg/mL insulin (Gibco), 10 ng/mL […] (EGF), 10 ng/mL basic fibroblast growth factor (Gibco) and 2 mM glutamine. Cells were grown in 75 cm2 culture flasks and incubated at 37° C. in a humidified atmosphere of 5% CO2 in air. Cells were fed twice weekly and split every third day at a ratio of 1:3. All experiments were conducted with FRDA cells from passages 8-14.
The ability of the test compounds to confer cytoprotection to ferroptosis inducer erastin in FRDA fibroblasts was determined by assessing the depletion of cellular ATP using a commercially available luciferase-linked ATPase enzymatic assay (ViaLight® Plus proliferation/cytotoxicity Kit (Lonza, Walkersville, MD) according to the directions of the manufacturer. Briefly, FRDA fibroblasts (GM04078) were plated in 96-well microtiter plates at a density of 3000 cell/well (50 μL) (Costar, Corning, NY). The plates were incubated at 37° C. for 24 h in an atmosphere having 95% humidity and 5% CO2 to allow attachment of the cells to the culture plates and to allow the cell density reach 60-70% confluency. The next day the test compounds were dissolved in DMSO, diluted to the appropriate concentrations in fresh cell culture media and the cells were then treated with the test compounds (final DMSO concentration was <0.5%). […] Cell viability in each well was determined 48 h after erastin addition by measuring the intracellular ATP content using the ViaLight®-Plus ATP monitoring reagent kit (Lonza, Walkersville, MD) according to the manufacturer's protocol. The ATP concentration was determined by reading luminescence using a luminator (Clarity™ luminescence microplate reader). The percent of viable cells relative to non-treated control was determined for each well. […] Final data output was a calculated EC50 value determined graphically from the dose-response curves using the nonlinear regression curve fit analysis model.

FRDA lymphocytes = assay: RSL3 challenge lipid peroxidation assay (C11-BODIPY581/591, FACS); assay type: cell-based; settings: Homo sapiens; FRDA lymphocytes (GM15850); compounds overnight, then 2 μM RSL3; C11-BODIPY581/591 flow cytometry; read-out: RSL3 challenge lipid peroxidation inhibition EC50
Description: as §1, §2
Lipid peroxidation in live cells can be visualized using the oxidation-sensitive fluorescent probe C11-BODIPY581/591. Upon oxidation of this probe, the fluorescence properties shift from a red-emitting form (595 nm) to a green emitting form (520 nm). Changes in fluorescence indirectly reflect the oxidation of unsaturated fatty acids. A quantitative analysis of lipid peroxidation in FRDA lymphocytes, challenged with 2 μM RSL3 in the presence or absence of the test compounds for 2 h was obtained by FACS analysis using the specific dye C11-BODIPY581/591. Briefly, FRDA lymphocytes (5×10^5 cell/mL) were treated with the test compounds (dissolved in DMSO and added to the assay medium at final DMSO concentrations <0.5%) at varying concentrations and incubated at 37° C. overnight in a humidified atmosphere containing 5% CO2 in air. Cells were treated with 2 μM of RSL3 and then incubated for 90 minutes in a humidified atmosphere containing 5% CO2 in air at 37° C. Cells were treated with 2 μM of C11-BODIPY581/591 in phenol red-free RPMI-1640 media and incubated at 37° C. in the dark for 30 min. […] Cells were resuspended in 300 μL of PBS and were analyzed immediately by flow cytometry (C6 Accuri, BD Biosciences, San Jose, CA), to monitor the change in intensity of the C11-BODIPY581/591-green (oxidized) fluorescence signal using 488 nm excitation laser and FL1-H channel 538 nm emission filter. In each analysis, 10,000 events were recorded. […] Final data output was a calculated EC50 value determined graphically from the dose-response curves using the nonlinear regression curve fit analysis model.

Row | SMILES | EC50 (FRDA lymphocytes) [nM] | EC50 (FRDA fibroblasts) [nM]
1 | CCCCCCCCCCc1cc2nc3ccc(=O)cc-3sc2cc1N(C)C [Example 1, 8-Decyl-7-(dimethylamino)-3H-phenothiazin-3-One] | 9 ± 1 | 10 ± 1
2 | CCCCCCCCc1cc2nc3ccc(=O)cc-3sc2cc1N(C)C [Example 2, 7-(Dimethylamino)-8-octyl-3H-phenothiazin-3-one] | 14 ± 1 | 15 ± 3
3 | CCCCCCCCCc1cc2nc3ccc(=O)cc-3sc2cc1N(C)C [Example 3, 7-(Dimethylamino)-8-nonyl-3H-phenothiazin-3-one] | 12 ± 1 | 11 ± 1

More lines, main results first:

Row | EC50 (FRDA lymphocytes) [nM] | SMILES | EC50 (FRDA fibroblasts) [nM]
4 | 16 ± 1 | CCCCCCCCCCCCc1cc2nc3ccc(=O)cc-3sc2cc1N(C)C [Example 4, 7-(Dimethylamino)-8-dodecyl-3H-phenothiazin-3-one] | 15 ± 1
5 | 25 ± 3 | CCCCCCCCCCCCCCCCc1cc2nc3ccc(=O)cc-3sc2cc1N(C)C [Example 5, 7-(Dimethylamino)-8-hexadecyl-3H-phenothiazin-3-one] | 22 ± 2
